Test results taken from US9247759B2, “Identification of human T2R receptors that respond to bitter compounds that elicit the bitter taste in compositions, and the use thereof in assays to identify compounds that inhibit (block) bitter taste in compositions and use thereof” (SENOMYX, INC., priority 2007, dated 2016).
pIC50: −log10 of the molar value. Where two headings read alike, the source gives them in different places.

How the values were obtained:
hT2R9 = hT2R9 (Homo sapiens (Human), UniProt Q9NYW1); assay: hT2R panel inhibition, transient HEK293 G16g44, agonist Ofloxacin 1 mM; type: cell-based; conditions: HEK293, compound at 25 μM; receptor activated to EC80 with the corresponding agonist; read-out: screening result against bitter receptor 9
Chain of hT2R9 (Q9NYW1 whole entry): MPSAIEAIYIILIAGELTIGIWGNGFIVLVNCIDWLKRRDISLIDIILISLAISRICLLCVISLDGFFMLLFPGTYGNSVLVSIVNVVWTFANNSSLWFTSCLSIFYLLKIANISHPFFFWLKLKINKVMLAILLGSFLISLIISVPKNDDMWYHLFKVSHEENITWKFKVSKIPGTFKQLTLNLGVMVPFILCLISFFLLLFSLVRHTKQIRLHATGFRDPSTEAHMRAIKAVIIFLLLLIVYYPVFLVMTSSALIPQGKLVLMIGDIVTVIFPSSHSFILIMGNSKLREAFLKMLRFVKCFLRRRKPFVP
Method: Specifically, in order to evaluate the inhibitory selectivity of the Compound C compound, this compound was tested against 22 human T2Rs which were deorphaned by Senomyx. These receptors and the bitter ligands that activate these human T2Rs are reported in earlier patent applications which are incorporated by reference herein. These 22 human T2Rs are hT2R1, 3, 4, 5, 7, 8, 9, 10, 13, 14, 16, 44, 51, 54, 55, 61, 63, 64, 65, 67, 71 and 75. The amino acid and nucleic acid sequences of all of these T2Rs may be found in these earlier patent applications. These human T2Rs were each individually transiently transfected into HEK293 cells that stably express the promiscuous G protein G16g44 and functional assays were effected using these receptors as disclosed in these same patent applications. […] The ligands were used at EC80 concentration levels. The list of bitter ligands utilized and the tested ligand concentrations are contained in Table 5 of this example.
Relating to the foregoing, FIG. 5 contains experimental results wherein Compound C was tested with different agonist compounds. The inhibition activity is represented by the reduction of receptor activity in the presence of Compound C. […] These 13 hT2Rs are hT2R3, 7, 10, 14, 16, 44, 51, 55, 61, 63, 64, 65, and 71.

hT2R3 = hT2R3 (Homo sapiens (Human), UniProt Q9NYW6); assay: hT2R panel inhibition, transient HEK293 G16g44, agonist Chloroquine pH6.5 50 μM; type: cell-based; conditions: HEK293, compound at 25 μM; receptor activated to EC80 with the corresponding agonist; read-out: screening result against bitter receptor 3
Chain of hT2R3 (Q9NYW6 whole entry): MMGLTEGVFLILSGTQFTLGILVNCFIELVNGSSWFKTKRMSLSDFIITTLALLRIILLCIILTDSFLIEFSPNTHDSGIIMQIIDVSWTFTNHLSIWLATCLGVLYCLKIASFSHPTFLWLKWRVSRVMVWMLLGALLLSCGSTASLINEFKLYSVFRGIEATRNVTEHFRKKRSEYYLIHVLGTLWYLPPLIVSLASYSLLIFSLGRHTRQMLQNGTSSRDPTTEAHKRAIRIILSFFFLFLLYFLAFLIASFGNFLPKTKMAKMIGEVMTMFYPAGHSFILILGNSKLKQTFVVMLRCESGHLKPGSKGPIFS
Outline: (§1)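 Selectivity screen across 22 hT2Rs, each transfected singly into a G16g44-stable HEK293 background. Agonist dosed at EC80. Inhibition = reduced receptor response in presence of test compound.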

hT2R44 = assay: hT2R panel inhibition, transient HEK293 G16g44, agonist Denatonium 0.5 μM; type: cell-based, human; conditions: compound at 25 μM; receptor activated to EC80 with the corresponding agonist
Outline: as §1

hT2R67 = assay: hT2R panel inhibition, transient HEK293 G16g44, agonist Andrographolide 5 μM; type: cell-based, human; conditions: compound at 25 μM; receptor activated to EC80 with the corresponding agonist
Outline: as §1

hT2R51 = hT2R51 (Homo sapiens (Human), UniProt P59533); assay: hT2R panel inhibition, transient HEK293 G16g44, agonist Prop 2.5 μM; type: cell-based; conditions: HEK293, compound at 25 μM; receptor activated to EC80 with the corresponding agonist; read-out: screening result against bitter receptor 51
Chain of hT2R51 (P59533 whole entry): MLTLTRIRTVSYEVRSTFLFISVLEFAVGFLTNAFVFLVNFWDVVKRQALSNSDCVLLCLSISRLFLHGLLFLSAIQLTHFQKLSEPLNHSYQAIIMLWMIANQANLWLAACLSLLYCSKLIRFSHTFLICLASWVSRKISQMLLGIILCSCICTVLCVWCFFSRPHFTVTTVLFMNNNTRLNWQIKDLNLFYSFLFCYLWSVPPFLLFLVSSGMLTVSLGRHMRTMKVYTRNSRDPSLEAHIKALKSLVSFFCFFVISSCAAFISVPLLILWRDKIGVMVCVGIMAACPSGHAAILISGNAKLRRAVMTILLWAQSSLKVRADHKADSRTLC
Outline: as §1

hT2R5 = hT2R5 (Homo sapiens (Human), UniProt Q9NYW4); assay: hT2R panel inhibition, transient HEK293 G16g44, agonist Picoline 10 mM; type: cell-based; conditions: HEK293, compound at 25 μM; receptor activated to EC80 with the corresponding agonist; read-out: screening result against bitter receptor 5
Chain of hT2R5 (Q9NYW4 whole entry): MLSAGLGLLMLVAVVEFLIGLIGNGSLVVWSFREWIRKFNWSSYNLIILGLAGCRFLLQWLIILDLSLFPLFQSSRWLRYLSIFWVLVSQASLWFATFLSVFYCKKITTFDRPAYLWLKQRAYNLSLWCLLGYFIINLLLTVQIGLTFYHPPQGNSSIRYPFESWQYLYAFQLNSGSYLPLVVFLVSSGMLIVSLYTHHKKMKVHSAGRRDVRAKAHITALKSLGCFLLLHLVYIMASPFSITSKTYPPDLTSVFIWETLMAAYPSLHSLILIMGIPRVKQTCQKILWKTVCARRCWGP
Outline: as §1

hT2R64 = hT2R64 (Homo sapiens (Human), UniProt P59538); assay: hT2R panel inhibition, transient HEK293 G16g44, agonist Aristolochic Acid 1 μM; type: cell-based; conditions: HEK293, compound at 25 μM; receptor activated to EC80 with the corresponding agonist; read-out: screening result against bitter receptor 64
Chain of hT2R64 (P59538 whole entry): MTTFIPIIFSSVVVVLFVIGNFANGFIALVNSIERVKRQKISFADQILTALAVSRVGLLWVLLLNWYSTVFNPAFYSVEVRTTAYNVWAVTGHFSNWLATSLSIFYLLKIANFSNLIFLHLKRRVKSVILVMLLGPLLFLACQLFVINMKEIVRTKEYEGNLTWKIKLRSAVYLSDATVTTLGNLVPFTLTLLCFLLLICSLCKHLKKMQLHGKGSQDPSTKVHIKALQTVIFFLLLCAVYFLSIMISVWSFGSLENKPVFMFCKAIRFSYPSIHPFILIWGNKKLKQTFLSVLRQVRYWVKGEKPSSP
Outline: as §1

hT2R63 = assay: hT2R panel inhibition, transient HEK293 G16g44, agonist Caffeine 1 mM or Andrographolide 100 μM; type: cell-based, human; conditions: compound at 25 μM; receptor activated to EC80 with the corresponding agonist
Outline: as §1

hT2R65 = assay: hT2R panel inhibition, transient HEK293 G16g44, agonist Oleuropein 1 mM; type: cell-based, human; conditions: compound at 25 μM; receptor activated to EC80 with the corresponding agonist
Outline: as §1

hT2R61 = hT2R61 (Homo sapiens (Human), UniProt P59537); assay: hT2R panel inhibition, transient HEK293 G16g44, agonist Aristolochic Acid 25 nM; type: cell-based; conditions: HEK293, compound at 25 μM; receptor activated to EC80 with the corresponding agonist; read-out: screening result against bitter receptor 61
Chain of hT2R61 (P59537 whole entry): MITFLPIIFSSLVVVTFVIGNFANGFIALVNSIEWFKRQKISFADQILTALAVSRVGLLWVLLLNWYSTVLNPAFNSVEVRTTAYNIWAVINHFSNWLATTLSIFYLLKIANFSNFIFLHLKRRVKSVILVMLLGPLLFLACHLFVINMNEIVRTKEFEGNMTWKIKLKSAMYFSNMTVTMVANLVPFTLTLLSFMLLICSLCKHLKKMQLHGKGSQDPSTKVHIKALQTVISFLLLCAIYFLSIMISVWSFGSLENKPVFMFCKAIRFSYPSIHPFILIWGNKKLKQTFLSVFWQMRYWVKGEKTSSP
Outline: as §1

hT2R16 = hT2R16 (Homo sapiens (Human), UniProt Q9NYV7); assay: hT2R panel inhibition, transient HEK293 G16g44, agonist Salicin 1 mM; type: cell-based; conditions: HEK293, compound at 25 μM; receptor activated to EC80 with the corresponding agonist; read-out: screening result against bitter receptor 16
Chain of hT2R16 (Q9NYV7 whole entry): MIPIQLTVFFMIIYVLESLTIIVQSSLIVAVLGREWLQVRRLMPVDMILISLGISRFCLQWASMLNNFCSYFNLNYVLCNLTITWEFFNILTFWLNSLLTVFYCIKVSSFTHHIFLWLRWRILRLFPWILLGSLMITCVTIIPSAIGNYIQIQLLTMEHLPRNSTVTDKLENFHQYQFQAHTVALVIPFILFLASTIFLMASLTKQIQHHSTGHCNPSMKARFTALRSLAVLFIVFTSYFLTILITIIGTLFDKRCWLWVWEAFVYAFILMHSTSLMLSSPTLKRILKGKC
Outline: as §1

hT2R7 = hT2R7 (Homo sapiens (Human), UniProt Q9NYW3); assay: hT2R panel inhibition, transient HEK293 G16g44, agonist Chloroquine pH6.5 10 mM; type: cell-based; conditions: HEK293, compound at 25 μM; receptor activated to EC80 with the corresponding agonist; read-out: screening result against bitter receptor 7
Chain of hT2R7 (Q9NYW3 whole entry): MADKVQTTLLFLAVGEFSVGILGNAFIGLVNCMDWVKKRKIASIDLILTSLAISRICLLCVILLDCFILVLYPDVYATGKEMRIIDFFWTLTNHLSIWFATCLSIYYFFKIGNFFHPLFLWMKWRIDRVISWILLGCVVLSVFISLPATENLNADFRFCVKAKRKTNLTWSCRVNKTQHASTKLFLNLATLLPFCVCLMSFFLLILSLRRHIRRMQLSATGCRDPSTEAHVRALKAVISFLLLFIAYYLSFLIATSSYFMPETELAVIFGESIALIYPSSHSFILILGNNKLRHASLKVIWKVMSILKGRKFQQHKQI
Outline: as §1

hT2R54 = assay: hT2R panel inhibition, transient HEK293 G16g44, agonist Ranitidine 5 mM; type: cell-based, human; conditions: compound at 25 μM; receptor activated to EC80 with the corresponding agonist
Outline: as §1

hT2R10 = hT2R10 (Homo sapiens (Human), UniProt Q9NYW0); assay: hT2R panel inhibition, transient HEK293 G16g44, agonist Strychnine 50 μM; type: cell-based; conditions: HEK293, read-out: screening result against bitter receptor 10, compound at 25 μM; receptor activated to EC80 with the corresponding agonist
Chain of hT2R10 (Q9NYW0 whole entry): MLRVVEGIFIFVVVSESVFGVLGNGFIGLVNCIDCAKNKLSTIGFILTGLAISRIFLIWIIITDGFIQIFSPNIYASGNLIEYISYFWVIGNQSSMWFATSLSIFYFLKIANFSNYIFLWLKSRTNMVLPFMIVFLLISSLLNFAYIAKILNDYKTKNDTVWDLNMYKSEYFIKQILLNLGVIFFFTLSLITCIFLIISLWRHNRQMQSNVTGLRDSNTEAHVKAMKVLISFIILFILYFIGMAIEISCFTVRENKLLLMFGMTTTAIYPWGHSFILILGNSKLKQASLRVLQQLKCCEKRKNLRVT

hT2R71 = hT2R71 (Homo sapiens (Human), UniProt P59536); assay: hT2R panel inhibition, transient HEK293 G16g44, agonist Picric Acid 10 μM; type: cell-based; conditions: HEK293, compound at 25 μM; receptor activated to EC80 with the corresponding agonist; read-out: screening result against bitter receptor 71
Chain of hT2R71 (P59536 whole entry): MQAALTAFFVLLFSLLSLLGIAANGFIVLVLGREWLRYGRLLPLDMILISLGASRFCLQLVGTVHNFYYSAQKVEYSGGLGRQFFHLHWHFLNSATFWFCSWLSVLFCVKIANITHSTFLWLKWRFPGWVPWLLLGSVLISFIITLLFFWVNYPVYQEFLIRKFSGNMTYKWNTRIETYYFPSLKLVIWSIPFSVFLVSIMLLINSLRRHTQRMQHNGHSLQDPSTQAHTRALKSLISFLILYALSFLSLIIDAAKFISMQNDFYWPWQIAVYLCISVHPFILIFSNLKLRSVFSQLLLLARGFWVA
Outline: as §1

hT2R14 [1] = molecular target: T1, hT2R14 (Homo sapiens (Human), UniProt Q9NYV8); assay: hT2R14 antagonist high-throughput FLIPR assay, stable cell line with G16g44, agonist aristolochic acid; type: cell-based
T1 sequence (Q9NYV8 whole entry): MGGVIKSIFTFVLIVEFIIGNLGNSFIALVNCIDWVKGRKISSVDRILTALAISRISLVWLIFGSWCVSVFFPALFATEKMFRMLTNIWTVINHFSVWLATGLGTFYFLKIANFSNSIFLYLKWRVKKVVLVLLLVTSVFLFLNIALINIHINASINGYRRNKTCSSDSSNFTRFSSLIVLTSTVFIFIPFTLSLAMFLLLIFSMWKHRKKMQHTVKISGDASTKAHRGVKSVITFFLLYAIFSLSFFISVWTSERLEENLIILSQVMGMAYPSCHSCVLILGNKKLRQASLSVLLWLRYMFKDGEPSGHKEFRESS
Outline: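 Compounds were co-applied with 3 μM aristolochic acid, a dose set to reach 70-80% of maximal hT2R14 activation. Read-out was FLIPR fluorescence in a stable HEK293 line co-expressing hT2R14 and G16g44.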

hT2R14 [2] = molecular target: T1, hT2R14; assay: hT2R panel inhibition, transient HEK293 G16g44, agonist Aristolochic Acid 2 μM; type: cell-based; conditions: HEK293, compound at 25 μM; receptor activated to EC80 with the corresponding agonist; read-out: screening result against bitter receptor 14
Outline: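 Agonist challenge was at EC80, with 0.5 mM andrographolide on hT2R8 and 2 μM aristolochic acid on hT2R14. Inhibition was measured in functional assays in HEK293 cells that stably carry the promiscuous G protein G16g44 and were transiently transfected with the individual receptor.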

hT2R55 = assay: hT2R panel inhibition, transient HEK293 G16g44, agonist Cinchonine 150 μM; type: cell-based, human; conditions: compound at 25 μM; receptor activated to EC80 with the corresponding agonist
Outline: as §1

hT2R75 = hT2R75 (Homo sapiens (Human), UniProt P59540); assay: hT2R panel inhibition, transient HEK293 G16g44, agonist Strychnine 1 μM; type: cell-based; conditions: HEK293, read-out: screening result against bitter receptor 75, compound at 25 μM; receptor activated to EC80 with the corresponding agonist
Chain of hT2R75 (P59540 whole entry): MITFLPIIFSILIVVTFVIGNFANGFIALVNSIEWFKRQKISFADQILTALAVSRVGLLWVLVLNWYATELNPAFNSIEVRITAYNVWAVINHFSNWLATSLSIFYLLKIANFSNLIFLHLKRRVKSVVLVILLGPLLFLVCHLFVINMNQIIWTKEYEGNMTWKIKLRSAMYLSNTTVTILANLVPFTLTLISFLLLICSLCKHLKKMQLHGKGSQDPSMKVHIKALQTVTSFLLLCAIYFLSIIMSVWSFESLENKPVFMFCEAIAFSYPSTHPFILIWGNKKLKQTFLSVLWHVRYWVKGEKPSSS

[3] = read-out: IC50 on hT2R14 bitter receptor

Row | Structure (SMILES) | inhibition at 25 µM (hT2R9) | inhibition at 25 µM (hT2R3) | screening result against bitter receptor 44 (hT2R44) | screening result against bitter receptor 67 (hT2R67) | inhibition at 25 µM (hT2R51) | inhibition at 25 µM (hT2R5) | inhibition at 25 µM (hT2R64) | screening result against bitter receptor 63 (hT2R63) | screening result against bitter receptor 65 (hT2R65) | inhibition at 25 µM (hT2R61) | inhibition at 25 µM (hT2R16) | inhibition at 25 µM (hT2R7) | screening result against bitter receptor 54 (hT2R54) | inhibition at 25 µM (hT2R10) | inhibition at 25 µM (hT2R71) | pIC50 (hT2R14 [1]; [3]) | inhibition at 25 µM (hT2R14 [2]) | screening result against bitter receptor 55 (hT2R55) | pIC50 (hT2R14 [1]; Table C, read-out: hT2R14 IC50) | inhibition at 25 µM (hT2R75)
1 | COc1ccc(CN(Cc2ccccc2F)S(=O)(=O)c2ccc(C(=O)O)cc2)cc1 [Example 5-31, 4-(N-(2-fluorobenzyl)-N-(4-methoxybenzyl)sulfamoyl)benzoic acid] | 20 to 40% | 20 to 40% | + (20% to 40% inhibition = +) | – | – | – | – | – | – | – | – | – | – | – | – | – | – | – | – | –
2 | COc1ccc(CN(Cc2cccc(OC)c2)S(=O)(=O)c2ccc(C(=O)O)cc2)cc1 [Example 5-34, 4-(N-(3-methoxybenzyl)-N-(4-methoxybenzyl)sulfamoyl)-benzoic acid] | 20 to 40% | 40 to 60% | ++ (40% to 60% inhibition = ++) | + (20% to 40% inhibition = +) | 20 to 40% | 40 to 60% | 60 to 80% | ++++ (80% or greater inhibition = ++++) | ++ (40% to 60% inhibition = ++) | > 80% | 20 to 40% | 20 to 40% | +++ (60% to 80% inhibition = +++) | 40 to 60% | 60 to 80% | 5.61 | > 80% | ++++ (80% or greater inhibition = ++++) | – | –
3 | COc1ccc(CN(Cc2cc(OC)cc(OC)c2)S(=O)(=O)c2ccc(C(=O)O)cc2)cc1 [Example 5-67, 4-(N-(3,5-dimethoxybenzyl)-N-(4-methoxybenzyl)sulfamoyl)benzoic acid] | 20 to 40% | 40 to 60% | ++ (40% to 60% inhibition = ++) | + (20% to 40% inhibition = +) | – | 20 to 40% | 60 to 80% | ++++ (80% or greater inhibition = ++++) | + (20% to 40% inhibition = +) | 40 to 60% | 20 to 40% | – | ++ (40% to 60% inhibition = ++) | 40 to 60% | 40 to 60% | – | 60 to 80% | ++++ (80% or greater inhibition = ++++) | 4.92 | –
4 | O=C(O)c1ccc(S(=O)(=O)N(Cc2ccccc2)Cc2cccc(C(=O)O)c2)cc1 [Example 5-76, 3-((N-benzyl-4-carboxyphenylsulfonamido)methyl)benzoic acid] | 20 to 40% | 20 to 40% | – | + (20% to 40% inhibition = +) | – | 20 to 40% | – | ++ (40% to 60% inhibition = ++) | – | 40 to 60% | – | – | – | – | 20 to 40% | – | – | – | – | –
5 | COc1ccc(CN(Cc2ccccc2)S(=O)(=O)c2ccc(C(=O)O)cc2)c(OC)c1 [Example 5-13, 4-(N-benzyl-N-(2,4-dimethoxybenzyl)sulfamoyl)benzoic acid] | 20 to 40% | 40 to 60% | +++ (60% to 80% inhibition = +++) | – | 20 to 40% | 20 to 40% | 60 to 80% | ++++ (80% or greater inhibition = ++++) | + (20% to 40% inhibition = +) | > 80% | 20 to 40% | 20 to 40% | +++ (60% to 80% inhibition = +++) | 20 to 40% | 40 to 60% | – | > 80% | ++++ (80% or greater inhibition = ++++) | – | –
6 | COc1cc(OC)c(CN(Cc2ccccc2)S(=O)(=O)c2ccc(C(=O)O)cc2)c(OC)c1 [Example 5-15, 4-(N-benzyl-N-(2,4,6-trimethoxybenzyl)sulfamoyl)benzoic acid] | 20 to 40% | 40 to 60% | – | – | – | 20 to 40% | 60 to 80% | – | + (20% to 40% inhibition = +) | > 80% | 20 to 40% | 20 to 40% | – | 40 to 60% | 60 to 80% | 4.97 | > 80% | – | – | –
7 | O=C(O)c1ccc(S(=O)(=O)N(Cc2ccccc2)Cc2ccccc2F)cc1 [Example 5-72, 4-(N-benzyl-N-(2-fluorobenzyl)sulfamoyl)benzoic acid] | 20 to 40% | 20 to 40% | + (20% to 40% inhibition = +) | + (20% to 40% inhibition = +) | 20 to 40% | 40 to 60% | 20 to 40% | ++++ (80% or greater inhibition = ++++) | + (20% to 40% inhibition = +) | 60 to 80% | 20 to 40% | – | + (20% to 40% inhibition = +) | 20 to 40% | 20 to 40% | – | > 80% | ++ (40% to 60% inhibition = ++) | – | 40 to 60%
